Results on 2 molecules are retold here after patent US5834012A, “Lipid complexed topoisomerase I inhibitors” (Perez-Soler; Roman, priority 1995, dated 1998).

Data set [1] concerns KB, MDA-Panc3, and DIFI cell lines. Nature of the data set: MTT cytotoxicity, KB, MDA-Panc3 and DIFI cell lines taken together. In kind it is cell-based, human. The procedure:
(§1) Cell Lines. MDA-Panc3 cells(pancreas carcinoma), DiFi cells (colon carcinoma), and KB cells (squamous carcinoma) were used for in vitro data.
(§2) Cytotoxicity Assay. 8,000 cells/well in 135 ul of Dubelco's MEM with 10% fetal bovine serum (FBS) was added to 96-well culture plates. The plates were incubated for 14 h at 37° in the presence of 5% CO2. 15 µL of CPT, liposomal CPT (L-CPT), and empty liposomes (ELs) with CPT were added in concentrations of […] CPT. Lipids were added to each sample (5-25:1 lipid:drug weight ratio). The cells were incubated in the presence of drug for 24 to 120 h. After […] of 5 mg/ml MTT in PBS was added to the samples, the cells were incubated at 37° for 2 h. 100 µL of lysis buffer (50 ml DMF, 20 gm SDS, to total volume 100 ml with water, adjusted to pH 4.7 with NaOH) was added to each well. Plates were incubated for 14h at 37°, then read at 570 nm in a kinetic microplate reader. A dose of 0.1 M blank lipid was used as a control for 100% survival.
(§3) LC-CPT consisting of 12.5:1 DO-NGPE:CPT was used for in vitro assays of cytotoxicity. Lethal cellular injury induced by CPT requires prolonged exposure, cytotoxicity of L-CPT and controls were determined at 24, 72, and 120 hr intervals of continuous drug exposure.

Data set [2] in a line: Chromatographic evaluation of CPT in the liposome fraction. It counts as physicochemical. As to conditions: lipid used alone. As for the experimental part:
Chromatography. A 30 cm agarose 0.5M column is used to separate liposome-bound drug from free CPT. PBS is used as the mobile phase for all preparations. Twenty samples were collected in 3 mL aliquots for a total of 60 mLs. Fluorescence and scintigraphy were used to detect encapsulated and free drug. Fluorimetry. Aliquots of 20 μl from each collection tube were transferred to cuvets containing 2 ml methanol. Fluorimetry was performed as described by Hart et al. (Hart et al., 1969). Fluorescence was measured at an excitation wavelength of 370 nm and emission wavelength of 434 nm (Perkin-Elmer MPF44A, Norwalk, Conn., U.S.A.). Two ml of ethanol was used as a control for machine calibration.
Chromatographic evaluation confirmed that <5% of CPT was incorporated in the liposome fraction of the preparation, the rest presumably being solubilized or in small particles not detectable by fluorescence microscopy.
(§4) These observation led the present inventors to other negatively charged lipids. […] Chromatographic evaluation of these preparations confirmed again that <5% of CPT eluted with the liposome fraction, the rest of the drug eluting later in a large number of consecutive fractions. By differential centrifugation, the lipid-binding efficiency of cardiolipin was about 67% and that of DO-NGPE 97%. DO-NGPE-CPT was, therefore, selected for further biological and pharmacological studies.

The nature of data set [3]: Lipid-binding efficiency by differential centrifugation. It counts as physicochemical. As for the experimental part: Determination of Entrapment Efficiency.
A modification of the Ficoll flotation method for separating entrapped from free drug was used (Fraley et al.). […] samples were added to 12×75 mm culture tubes. One ml of 30% Ficoll was layered on the liposome preparation, then one ml of PBS was layered on top of the Ficoll. The tube was spun for 30 min at 3400 rpm in Sorvall GS2-B swing rotor. The percent entrapment was calculated with the formula: [formula]
as §4

Data set [4] can be described thus: Lipids screened for complexation with CPT (fluorescent microscopy; % bound). It counts as physicochemical. The source says:
In order to prepare LC-CPT (a liposomal preparation containing CPT within spherical lipid vesicles) various individual lipids were screened for complexation with CPT. […] CPT crystals and lipid/CPT complexes of >0.4 microns can be visualized under a fluorescent microscope (since CPT fluoresces due to its rigid ring structure). […] Therefore, the better a lipid complexes with CPT the less CPT crystals are formed, and the more lipid/CPT complexes are formed.
Drug/lipid Complex Preparation. CPT was mixed in ratios of from 2:1 to 25:1 w/w lipid:drug in chloroform-methanol (8:1). For studies where CPT was radiolabeled, approximately 0.02 uCi/ml [^3 H] CPT was added to the preparation. Trace quantities of ^14 C labeled cholesterol was added to samples requiring lipid labeling. For small samples, the lipids were dried in 12×75 mm culture tubes under a stream of nitrogen gas. For large samples, a rotavapor (Buchi RE140, Switzerland) was used to dry lipids in a 100 to 1000 ml round bottom flasks. […] For liposomal CPT 0.9% Nace was used. Preparations were screened for lipid entrapment by light and fluorescent microscopy (Nikon Labophot-2, Japan). […]
Lipids of varying carbon chain length, charge, and saturation, alone or in different combinations, were empirically screened for their ability to form liposomes incorporating CPT by fluorescent microscopy.

A short description of data set [5]: Organ distribution after i.v. administration. In kind it is in vivo, mice.
The next data set relates to MDA-Panc3 cells. The experiment in a line: MTT cytotoxicity, MDA-Panc3 cells. As to conditions: 24-120 h. It counts as cell-based, human. The procedure: as §1, §2, §3
The next data set relates to L1210 leukemia. Nature of the data set: Survival of mice inoculated IP with L1210 leukemia. It counts as in vivo, mouse (B6D2Fl). The note with it: for % T/C: 24 h after inoculation. As for the experimental part:
In Vivo Protocol. B6D2Fl mice (Charles River Laboratories, Wilmington, Mass., U.S.A.) were injected with […] L1210 leukemia cells via the intraperitoneal route. A single intraperitoneal treatment with ELs, CPT, L-CPT, ELs +CPT was administered 24 hours after tumor inoculation. Five animals were used in each group except for the control group which consisted of 7 untreated mice.
Statistical Considerations. Animal survival data was plotted using the method described by Kaplan and Meier (Kaplan and Meier, 1958):
Because LC-CPT appeared to have improved potency compared to free CPT and LC-CPT caused early death at the highest doses, mice inoculated with L1210 leukemia were treated with doses of 30 to 60 mg/kg free CPT or 10 to 20 mg/kg of LC-CPT (Table 6). […] One animal treated with 15 mg/kg free CPT plus lipid survived 50 days.

The next data set in a line: Solubility of CPT. It counts as physicochemical. The source says: Some lipophilic drugs such as taxol and taxotere can be solubilized by mild detergents, surfactants and alcohol- containing solutions; however, no similar vehicle has been identified for CPT lactone. […] Solutions containing chloroform and methanol can solubilize CPT, but are too toxic for clinically relevant studies.

Another data set has as its system KB cells. Nature of the data set: MTT cytotoxicity, KB cells. In kind it is cell-based, human. As for the experimental part: as §1, §2, §3
The test system of another data set is DIFI cells. Nature of the data set: MTT cytotoxicity, DIFI cells. In kind it is cell-based, human. The procedure: as §1, §2, §3
A further data set has as its system P388 leukemia. The experiment in a line: Survival of mice inoculated IP with P388 leukemia. The note with it: for long-term survivors, percent: FIG. 5b; for % T/C: 24 h after inoculation. In kind it is in vivo, mouse (B6D2Fl).
For data set [6] the following is noted: it has been shown; cited from earlier work.

“And” between values parts separate entries of the source, which are not always exact repeats. Identical values can stand only once. “Also recorded” adds a separate entry of the source.

As to `CCCCCCCC/C=C\CCCCCCCC(=O)OCC(COP(=O)(O)OCCNC(=O)CCCC(=O)O)OC(=O)CCCCCCC/C=C\CCCCCCCC` (centres unmarked) [Dioleoyl-NGPE, dioleoyl-N-glutaryl-phosphatidyl ethanolamine], the “antitumor activity in vitro (in words)” value in data set [1] is “does not appear to have any intrinsic antitumor activity and does not inhibit the effects of CPT”. Moreover, in [2], the “CPT incorporated in / eluted with the liposome fraction” value is given as below 5%. Also, the lipid-binding efficiency in data set [3] is listed as 97%. In addition, the Crystals result in [4] (Table 1, lipid alone with CPT, fluorescent microscopy) is “no”. Also, the “interaction with CPT (in words)” value in data set [4] (listed as DO-NGPE) was “homogeneous and milky preparations devoid of drug crystals; also recorded: most favorable interaction”.

As to `CC[C@@]1(O)C(=O)OCc2c1cc1n(c2=O)Cc2cc3ccccc3nc2-1` [CPT, Camptothecin], the “GI Tract level” value in data set [5] (6 hrs, i.v. 10 mg/kg CPT) is on record as 2.562 ± 0.515 μg/ml or μg/mg dry tissue; in [5] (24 hrs, i.v. 10 mg/kg CPT), 0.492 ± 0.148 μg/ml or μg/mg dry tissue. Also, the Heart level in data set [5] (6 hrs, i.v. 10 mg/kg CPT) is 1.458 ± 0.555 μg/ml or μg/mg dry tissue; in data set [5] (24 hrs, i.v. 10 mg/kg CPT), 0.228 ± 0.092 μg/ml or μg/mg dry tissue. The Kidney level in data set [5] (6 hrs, i.v. 10 mg/kg CPT) is 0.443 ± 0.164 μg/ml or μg/mg dry tissue; in data set [5] (24 hrs, i.v. 10 mg/kg CPT) it was 0.539 ± 0.428 μg/ml or μg/mg dry tissue. In addition, the Liver level is 2.077 ± 0.402 μg/ml or μg/mg dry tissue in data set [5] (6 hrs, i.v. 10 mg/kg CPT) and 0.429 ± 0.124 μg/ml or μg/mg dry tissue in [5] (24 hrs, i.v. 10 mg/kg CPT). In addition, the Lung level in [5] (6 hrs, i.v. 10 mg/kg CPT) is given as 38.217 ± 3.061 μg/ml or μg/mg dry tissue; in [5] (24 hrs, i.v. 10 mg/kg CPT) it was 12.276 ± 5.363 μg/ml or μg/mg dry tissue. Also, in [5] (i.v.), the “drug level in the lungs, free CPT relative to LC-CPT” value is recorded as “about 180 -fold”. Besides, the “biodistribution / clearance (in words)” value in data set [5] (i.v., mice, listed as free CPT) is “rapidly cleared from the blood; also recorded: Heart and kidney levels of free CPT were higher than those of LC-CPT”. In addition, the concentration at 6 h in data set [5] (mouse, in vivo, iv, 6 hrs, i.v. 10 mg/kg CPT, read-out: Blood level) is 69 ± 39 ng/mL. Moreover, in data set [5] (mouse, in vivo, iv, 24 hrs, i.v. 10 mg/kg CPT, read-out: Blood level), the concentration at 24 h is 8 ± 12 ng/mL. The “cytotoxicity (in words)” value in the data set on MDA-Panc3 cells is given as “modestly sensitive; also recorded: significantly more toxic to cells at a concentration of 1 μmol compared to 0.1 μmol; also recorded: somewhat more sensitive to CPT at 24 h than DIFI cells”; in the data set on KB cells (24 h) it was “somewhat more sensitive to CPT at 24 h than DIFI cells”; in the data set with DIFI cells (24-120 h) it was “significantly more toxic to cells at a concentration of 1M compared to 0.1M”. In addition, the “antitumor activity / survival, L1210 (in words)” value in the data set with L1210 leukemia was “inactive”. Besides, the 50-day survivors is on record as 0 in the data set on L1210 leukemia (30 mg/kg CPT); 0 with L1210 leukemia (45 mg/kg CPT); 0 in the data set with L1210 leukemia (60 mg/kg CPT); “none” in the data set with P388 leukemia (P388, IP, 10 mg/kg CPT); “none” with P388 leukemia (P388, IP, 20 mg/kg CPT). The “% T/C” value in the data set with L1210 leukemia (30 mg/kg CPT) is given as 85%; in the data set on L1210 leukemia (45 mg/kg CPT), 85%; in the data set on L1210 leukemia (60 mg/kg CPT) it was 92%; in the data set on P388 leukemia (P388, IP, 10 mg/kg CPT) it was 121%; with P388 leukemia (P388, IP, 20 mg/kg CPT), 100%. For the same molecule, the “aqueous solubility (in words)” value in “Solubility of CPT” was “poor aqueous solubility”. In addition, in “Solubility of CPT” (CPT lactone), the “solubility in DMSO, Tween-20, cremophor, and methanol (in words)” value is “crystallization and precipitation of drug occurs”. In addition, the cellular viability entry with KB cells (120 h) and with DIFI cells (120 h) was “approximately 40%” in each case. The “long-term survivors, percent” value in the data set with P388 leukemia (IP, 20 mg/Kg) is on record as 20%; in the data set on P388 leukemia (IP, 40 mg/Kg) it was 60%. Moreover, the “treatment-related deaths / toxicity at 40 mg/kg” value with P388 leukemia (IP, 40 mg/kg CPT) is given as “one treatment related death (day 8)”. For the same molecule, in the data set with P388 leukemia (P388, IP), the “antitumor activity, P388 (in words)” value is recorded as “No activity”. In the data set on P388 leukemia (P388, IP, 40 mg/kg CPT, 40 mg/kg), the “50-day survivors / long-term survivors” value was 3 and 3/5. The “%T/C, similar antitumor activity compared” value in the data set on P388 leukemia (P388, IP, dose not given) came out at 207%. The “activity of closed-lactone form relative to sodium salt” value in data set [6] is on record as 10 fold.
